Experimental findings from US12570605B2, “Indole compounds, and preparation methods, and uses thereof” (Shenzhen 01 Life Science and Technology Co., Ltd., priority 2021, dated 2026) are described below.

Assay [1] deals with mouse model with ear AD-like symptoms induced by calcipotriol (MC903). Put plainly: Mouse model with ear AD-like symptoms induced by calcipotriol (MC903), second batch of experiments (Embodiment 32). As to conditions: MC903 5 nmol/mouse every day, 9 days; for reducing ear thicknesses of the mice / reducing the total serum IgE levels of the mice: vs model control group (MC903+EtOH), Mann-Whitney test; for therapeutic effects on AD-like symptoms in the ear of mice (ear inflammation, tissue HE staining, parameters of multiple experiments): screening over both batches. The assay is classed as in vivo, BALB/c mouse. How it is done:
(§1) A mouse model with ear AD-like symptoms induced by calcipotriol (MC903) was used to investigate these compounds in terms of the treatment activity for AD.
(§2) Referring to the Patent with a publication number of CN 110368386 A, a mouse model induced by MC903 (Calcipotriene) was prepared, wherein both ears of the BALB/c mouse model were applied with MC903, MC903+indole-3-aldehyde (IAId), or MC903+the compound prepared from the embodiments for 11 consecutive days, respectively, and total serum IgE levels, ear thicknesses, and weight loss in relative to the weight at the beginning of the experiment were tested at the end of the experiment.
(§3) The data shown in the results were average values ±SD of five independently repeated trials. Significance analysis was performed using Mann-Whitney test on the differences of corresponding parameters of the mice with the treatment group (MC903+ethanol (EtOH)), which was only administrated with MC903, wherein * indicated P<0.05, ** indicated P<0.01; *** indicated P<0.001.
Therefore, in the second batch of drug tests, the dosage of MC903 was decreased to 5 nmol/mouse every day, and the test period was reduced to 9 days.
EtOH group was a Blank control group, which was only administrated with ethanol. MC903+ EtOH group was a model control group, which was administrated with Calcipotriene and ethanol. The remaining groups were the groups which were administered with MC903 to construct the model, and then administered with different drugs. Indole-3-aldehyde (IAId) group was the group administered with IAId. Indole-3-methanol (I3C) group was the group administered with I3C. The other compound groups were the groups administered with corresponding compounds.

For assay [2] the test system is unchanged. The assay is described as follows: Mouse model with ear AD-like symptoms induced by calcipotriol (MC903), first batch of experiments (Embodiment 32). The format is in vivo, BALB/c mouse. As to conditions: MC903 6.9 nmol/mouse every day; for reducing ear thicknesses of the mice / reducing the total serum IgE levels of the mice: both ears, 11 consecutive days, vs model control group (MC903+EtOH), Mann-Whitney test. As to the method: as §1, §2, §3
In this batch of experiments, the dosage of MC903, a drug for constructing the models, was 6.9 nmol/mouse every day, and the experimental results of Compounds 1, 2, 3, 6, 7, 19, 20, 28, 29, 30, 34, 37, 38, and 39 in this batch were shown in FIGS. 11 to 13.
EtOH group was a Blank control group, which was only administrated with ethanol. MC903+ EtOH group was a model control group, which was administrated with Calcipotriene and ethanol. The remaining groups were the groups which were administered with MC903 to construct the model, and then administrated with different drugs. Indole-3-aldehyde (IAId) group was the group administered with IAId, indole-3-methanol (I3C) group was the group administered with I3C. The other compound groups were the groups administered with corresponding compounds.

Assay [3] has the same test system. Put plainly: Optimum effective concentration in treatment of AD-like symptoms, MC903 mouse model (Embodiment 33). The format is in vivo. As to conditions: vs group only administrated with MC903; for inhibitory effect on systematic inflammation (lower total serum IgE levels and improvement on AD-like symptoms in the mice ear): dosages per Table 11. How it is done: The above screened compounds having therapeutic effect on AD-like symptoms were selected to further determine the optimum effective concentration.
Referring to the animal model method in the Embodiment 32, dosages of drugs for each group were determined according to the table below, and the optimal effective concentration in treatment of AD-like symptoms was explored by comparing the differences in ear thicknesses, the total serum IgE levels and the weight loss of the mice with those of the treatment group only administrated with MC903.

“Also recorded” adds a separate entry of the source.

As for `O=C(Cc1ccccc1Nc1c(Cl)cccc1Cl)OCOC(=O)n1cc(CO)c2ccccc21` [Compound 27, (2-(2-((2,6-dichlorophenyl)amino)phenyl)acetoxy)methyl 3-(hydroxymethyl)-1H-indole-1-carboxylate], in assay [1], the “reducing ear thicknesses of the mice” value is given as “statistically significant difference” and the “reducing the total serum IgE levels of the mice” value is reported as “statistically significant difference”.

Take `CCCCCC(=O)OCOC(=O)n1cc(C=O)c2ccccc21` [Compound 1, (hexanoyloxy)methyl 3-formyl-1H-indole-1-carboxylate]: in assay [2], the “reducing ear thicknesses of the mice” value was “statistically significant difference” and the “reducing the total serum IgE levels of the mice” value is recorded as “statistically significant difference”.

As to `CCCCCCCCCCCC(=O)OCOC(=O)n1cc(C=O)c2ccccc21` [Compound 4, (dodecanoyloxy)methyl 3-formyl-1H-indole-1-carboxylate], in assay [1], the “therapeutic effects on AD-like symptoms in the ear of mice (ear inflammation, tissue HE staining, parameters of multiple experiments)” value is listed as “therapeutic effects”; the “reducing ear thicknesses of the mice” value is listed as “statistically significant difference”; the “reducing the total serum IgE levels of the mice” value was “statistically significant difference; also recorded: excellent effects”. Moreover, the “inhibitory effect on systematic inflammation (lower total serum IgE levels and improvement on AD-like symptoms in the mice ear)” value in assay [3] is “good inhibitory effect; also recorded: excellent inhibitory effect”.

In the case of `CCCCCCCCCCCCCC(=O)OCn1cc(CO)c2ccccc21` [Compound 41, (3-(hydroxymethyl)-1H-indol-1-yl)methyl tetradecanoate], in assay [1], the “reducing the total serum IgE levels of the mice” value is “statistically significant difference”.

On to `CC(=O)Oc1ccccc1C(=O)OCn1cc(C=O)c2ccccc21` [Compound 35, (3-formyl-1H-indol-1-yl)methyl 2-acetoxybenzoate], for which, in assay [1], the “therapeutic effects on AD-like symptoms in the ear of mice (ear inflammation, tissue HE staining, parameters of multiple experiments)” value is reported as “therapeutic effects” and the “reducing the total serum IgE levels of the mice” value was “statistically significant difference; also recorded: excellent effects”. The “inhibitory effect on systematic inflammation (lower total serum IgE levels and improvement on AD-like symptoms in the mice ear)” value in assay [3] is “good inhibitory effect”.

For `CCCCCCCCCC(=O)OCn1cc(C=O)c2ccccc21` [Compound 30, (3-formyl-1H-indol-1-yl)methyl decanoate], the “therapeutic effects on AD-like symptoms in the ear of mice (combined with ear inflammation and tissue HE staining)” value in assay [2] (11 days) is listed as “significant therapeutic effects”. Further, in assay [2], the “reducing ear thicknesses of the mice” value is “statistically significant difference; also recorded: excellent effects” and the “reducing the total serum IgE levels of the mice” value is on record as “statistically significant difference; also recorded: excellent effects”. Also, in assay [1], the “therapeutic effects on AD-like symptoms in the ear of mice (ear inflammation, tissue HE staining, parameters of multiple experiments)” value is recorded as “therapeutic effects”; the “reducing ear thicknesses of the mice” value is reported as “statistically significant difference”; the “reducing the total serum IgE levels of the mice” value is “statistically significant difference; also recorded: excellent effects”. Also, the “inhibitory effect on systematic inflammation (lower total serum IgE levels and improvement on AD-like symptoms in the mice ear)” value in assay [3] is on record as “good inhibitory effect; also recorded: excellent inhibitory effect”.

As for `O=Cc1cn(C(=O)OCOC(=O)Cc2ccccc2Nc2c(Cl)cccc2Cl)c2ccccc12` [Compound 9, (2-(2-((2,6-dichlorophenyl)amino)phenyl)acetoxy)methyl 3-formyl-1H-indole-1-carboxylate], in assay [1], the “therapeutic effects on AD-like symptoms in the ear of mice (ear inflammation, tissue HE staining, parameters of multiple experiments)” value is recorded as “therapeutic effects”; the “reducing ear thicknesses of the mice” value is on record as “statistically significant difference; also recorded: excellent effects”; the “reducing the total serum IgE levels of the mice” value was “statistically significant difference; also recorded: excellent effects”. Also, the “therapeutic effect on AD-like symptoms in the mouse ear” value in assay [3] (at different concentration) was “significant therapeutic effect”. Also, the “inhibitory effect on systematic inflammation (lower total serum IgE levels and improvement on AD-like symptoms in the mice ear)” value in assay [3] is “good inhibitory effect”.

`CCCCCC(=O)OCOC(=O)n1cc(CO)c2ccccc21` [Compound 19, (hexanoyloxy)methyl 3-(hydroxymethyl)-1H-indole-1-carboxylate]: the “reducing ear thicknesses of the mice” value in assay [2] is listed as “statistically significant difference”.

In the case of `CC(=O)Oc1ccccc1C(=O)OCOC(=O)n1cc(C=O)c2ccccc21` [Compound 8, ((2-acetoxybenzoyl)oxy)methyl 3-formyl-1H-indole-1-carboxylate], in assay [1], the “reducing ear thicknesses of the mice” value is “statistically significant difference” and the “reducing the total serum IgE levels of the mice” value is “statistically significant difference”.

With `OCc1c[nH]c2ccccc12` [Compound I3C, indole-3-methanol, reference compound], in assay [2], the “reducing ear thicknesses of the mice” value is recorded as “significantly reduced” and the “reducing the total serum IgE levels of the mice” value was “significantly reduced”.

As to `CCCCCCCC(=O)OCOC(=O)n1cc(C=O)c2ccccc21` [Compound 2, (octanoyloxy)methyl 3-formyl-1H-indole-1-carboxylate], in assay [2], the “reducing the total serum IgE levels of the mice” value is “statistically significant difference”.

For `CCCCCCCCCCCCCC(=O)OCOC(=O)n1cc(CO)c2ccccc21` [Compound 23, (tetradecanoyloxy)methyl 3-(hydroxymethyl)-1H-indole-1-carboxylate], the “reducing the total serum IgE levels of the mice” value in assay [1] was “statistically significant difference”.

With `CCCCCCCCCC(=O)OCn1cc(CO)c2ccccc21` [Compound 39, (3-(hydroxymethyl)-1H-indol-1-yl)methyl decanoate], in assay [2], the “reducing ear thicknesses of the mice” value is given as “statistically significant difference” and the “reducing the total serum IgE levels of the mice” value is given as “statistically significant difference”.

On to `COCCOCCOCCOCCOCC(=O)OCn1cc(C=O)c2ccccc21` [Compound 34, (3-formyl-1H-indol-1-yl)methyl 2,5,8,11,14-pentaoxahexadecan-16-oate], for which, in assay [2], the “reducing ear thicknesses of the mice” value is on record as “statistically significant difference” and the “reducing the total serum IgE levels of the mice” value is reported as “statistically significant difference”.

In the case of `CCCCCCCCCCCCCCCC(=O)OCOC(=O)n1cc(CO)c2ccccc21` [Compound 24, (palmitoyloxy)methyl 3-(hydroxymethyl)-1H-indole-1-carboxylate], the “reducing the total serum IgE levels of the mice” value in assay [1] is on record as “statistically significant difference”.

For the compound `CC(=O)Oc1ccccc1C(=O)OCOC(=O)n1cc(CO)c2ccccc21` [Compound 26, ((2-acetoxybenzoyl)oxy)methyl 3-(hydroxymethyl)-1H-indole-1-carboxylate], the “reducing the total serum IgE levels of the mice” value in assay [1] is listed as “statistically significant difference”.

Turning to `CCCCCCCC(=O)OCOC(=O)n1cc(CO)c2ccccc21` [Compound 20, (octanoyloxy)methyl 3-(hydroxymethyl)-1H-indole-1-carboxylate], in assay [2], the “reducing ear thicknesses of the mice” value was “statistically significant difference”.

On to `CCCCCCCCCCCCCCCC(=O)OCn1cc(C=O)c2ccccc21` [Compound 33, (3-formyl-1H-indol-1-yl)methyl palmitate], for which the “reducing the total serum IgE levels of the mice” value in assay [1] is given as “statistically significant difference”.

For `CCCCCCCCCCCC(=O)OCOC(=O)n1cc(CO)c2ccccc21` [Compound 22, (dodecanoyloxy)methyl 3-(hydroxymethyl)-1H-indole-1-carboxylate], in assay [1], the “therapeutic effects on AD-like symptoms in the ear of mice (ear inflammation, tissue HE staining, parameters of multiple experiments)” value is reported as “therapeutic effects” and the “reducing the total serum IgE levels of the mice” value is listed as “statistically significant difference; also recorded: excellent effects”. In addition, in assay [3], the “inhibitory effect on systematic inflammation (lower total serum IgE levels and improvement on AD-like symptoms in the mice ear)” value is listed as “good inhibitory effect”.

Turning to `O=Cc1c[nH]c2ccccc12` [IAId, indole-3-carboxaldehyde, reference compound], in assay [2], the “reducing ear thicknesses of the mice” value is reported as “significantly reduced” and the “reducing the total serum IgE levels of the mice” value is “significantly reduced”.

As to `CCCCCC(=O)OCn1cc(CO)c2ccccc21` [Compound 37, (3-(hydroxymethyl)-1H-indol-1-yl)methyl hexanoate], in assay [2], the “reducing the total serum IgE levels of the mice” value is reported as “statistically significant difference”.
